Measured values: ChEMBL document CHEMBL1201862, “PubChem BioAssay data set” (2004)
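Step 1: Grow cells in 96-well plates. Step 2: Expose to compound for 48 hours at 5 concentrations. Step 3: Interpolate endpoints linearly; if unreached, use highest concentration. At the GI50, growth is halved.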 The source made the active and inactive calls. Cut-off read from the data, not from the text of the source: active = GI50 up to about 1.1 µM and inactive = higher.

Tests used:
Test in all cases: DTP human tumour cell line panel, 48 h
[1] = tested on: 786-0
[2] = tested on: ACHN
[3] = tested on: BT-549
[4] = tested on: HCT-15
[5] = tested on: HL-60
[6] = tested on: Hs-578T
[7] = tested on: IGROV-1
[8] = tested on: K562
[9] = tested on: KM12
[10] = tested on: M19-MEL
[11] = tested on: MCF7
[12] = tested on: MDA-N
[13] = tested on: MOLT-4
[14] = tested on: NCI-H226
[15] = tested on: OVCAR-4
[16] = tested on: SF-295
[17] = tested on: SK-MEL-28
[18] = tested on: SN12C
[19] = tested on: T47D
[20] = tested on: UACC-257

Measured: GI50

Cc1cc(NC(=O)NC(=O)c2ccccc2NC(=O)C(C)N)ccc1Oc1ncc(Br)cn1 (stereo not given)
inactive: [2] 1.22 µM | [3] 26.8 µM | [15] 5.36 µM | [19] 15.1 µM
310 nM: [4]
active: [1] 55.9 nM | [5] 13.1 nM | [6] 15.9 nM | [7] 153 nM | [8] 136 nM | [9] 169 nM | [10] 292 nM | [11] 152 nM | [12] 20.2 nM | [13] 230 nM | [14] 70.3 nM | [16] 25.6 nM | [17] 184 nM | [18] 88.5 nM | [20] 547 nM
